# Assay results taken from patent US20260053764A1, “COMPOSITION FOR PREVENTING DETERIORATION IN COGNITIVE FUNCTION AND/OR IMPROVING COGNITIVE FUNCTION” (PHARMA FOODS INTERNATIONAL CO., LTD., priority 2020, published 2026).
# Experiments:
# [1] = tested on: cognitive function of a human; assay: RBANS neuropsychological test in clinical tests A and B; assay type: in vivo; set-up: Attention / Delayed memory / Immediate memory / Language: scale not given here; settings: for Attention / Immediate memory / Language / Visual spatial configuration / Delayed memory: mean ± SD; for scores regarding delayed playback, GABA group compared to the placebo group / scores regarding visual space, GABA group compared to the placebo group: after twelve weeks of ingestion
# Description: In addition, the RBANS neuropsychological test (RBANS: Repeatable Battery for the Assessment of Neuropsychological Status) is one of the neuropsychological examinations that have been standardized the a in United States, which is neuropsychological test exercise (examination battery) that takes a short time (about 30 minutes) and can be repeatedly assessed. The RBANS neuropsychological test can assess five cognitive domains, which are immediate memory, visual spatial/constructional, language, attention and delayed memory.
# Two types of placebo-controlled randomized double-blind two-group parallel comparison tests were carried out as clinical tests. […] Specifically, capsules comprising 100 mg of dextrin per capsule were used as the placebo food.
# The screening examination was carried out to select 60 subjects for each test (a total of 120 subjects). MMSE (Mini Mental State Examination) is an examination for assessing the degree of progression of dementia or the like based on the score thereof with 30 as the perfect score, wherein dementia is suspected with a score of 23 or lower.
# The total of 120 subjects were randomly divided into test A active group, test A placebo group, test B active group and test B placebo group with 30 subjects in each group. Each subject of the test A active group ingested two capsules of the active food, each subject of the test A placebo group ingested two capsules of the placebo food, each subject of the test B active group ingested one capsule of the active food and each subject of the test B placebo group ingested one capsule of the placebo food.
# Each subject followed the schedule shown in the table below and ingested one or two of the assigned capsules together with water for 12 weeks from two weeks after the initial screening examination. All subjects had no particular instruction during the ingestion period and freely took their meals.
# As shown with ● in the test schedule in Table 1, Cognitrax was carried out a total of five times, which are upon screening, before starting test food sample ingestion, after four weeks of ingestion, after eight weeks of ingestion and after twelve weeks of ingestion, and the RBANS neuropsychological test was carried out a total of two times, which are before staring test food ingestion and after twelve weeks of ingestion.
# [2] = tested on: IGF-1 (insulin-like growth factor-1); assay: Blood test, IGF-1 concentration in blood; assay type: in vivo, human; settings: 200 mg ingestion test
# From the text: While there are still many unclear points regarding the biochemical mechanism regarding reduction in cognitive function, the IGF-1 (insulin-like growth factor-1) level in blood is known to be reduced by aging. […] In one embodiment of the present disclosure, the composition of the present disclosure can be a composition for suppressing reduction in cognitive function and/or improving the cognitive function through elevation of the IGF-1 concentration in blood.
# Among the 120 subjects in Example 1, a total of six blood tests were carried out to the total of 60 subjects who participated in test, wherein blood tests were carried out upon screening, before starting test food ingestion, after four weeks of ingestion, after eight weeks of ingestion, after twelve weeks of ingestion and four weeks after ending ingestion, as shown with ● in the test schedule in Table 1.
# [3] = test A 200 mg, before ingestion
# [4] = test B 100 mg, before ingestion
smiles,measurement,setting,value
"NCCCC(=O)O [GABA, γ-aminobutyric acid]",Delayed memory: difference between active food and placebo food groups,"[1]; test A 200 mg, 12 w",9.4
same,Immediate memory: difference between active food and placebo food groups,"[1]; test A 200 mg, 12 w",13.1
same,Language: difference between active food and placebo food groups,"[1]; test A 200 mg, 12 w",5.0
same,RBANS domain (row head blank): difference between active food and placebo food groups,"[1]; test A 200 mg, 12 w",5.6
same,Visual space: difference between active food and placebo food groups,"[1]; test A 200 mg, 12 w",3.1
same,Attention,"[1]; test A 200 mg, 12 w",53.0 ± 15.2
same,Immediate memory,"[1]; test A 200 mg, 12 w",47.6 ± 14.7
same,Language,"[1]; test A 200 mg, 12 w",54.2 ± 9.5
same,Visual spatial configuration,"[1]; test A 200 mg, 12 w",48.8 ± 13.0
same,Delayed memory: difference between active food and placebo food groups,[1]; [3],−1.6
same,Immediate memory: difference between active food and placebo food groups,[1]; [3],0.8
same,Language: difference between active food and placebo food groups,[1]; [3],2.3
same,RBANS domain (row head blank): difference between active food and placebo food groups,[1]; [3],−0.8
same,Visual space: difference between active food and placebo food groups,[1]; [3],−0.2
same,Attention,[1]; [3],44.5 ± 17.6
same,Delayed memory,[1]; [3],39.8 ± 17.1
same,Immediate memory,[1]; [3],42.3 ± 16.6
same,Language,[1]; [3],48.4 ± 8.5
same,Visual spatial configuration,[1]; [3],47.7 ± 14.7
same,"scores regarding delayed playback, GABA group compared to the placebo group",[1]; test A,significant improvement
same,"scores regarding visual space, GABA group compared to the placebo group",[1]; test A,significant improvement
same,Attention: difference between active food and placebo food groups,"[1]; test B 100 mg, 12 w",−2.2
same,Delayed memory: difference between active food and placebo food groups,"[1]; test B 100 mg, 12 w",11.9
same,Immediate memory: difference between active food and placebo food groups,"[1]; test B 100 mg, 12 w",3.5
same,Language: difference between active food and placebo food groups,"[1]; test B 100 mg, 12 w",3.9
same,Visual space: difference between active food and placebo food groups,"[1]; test B 100 mg, 12 w",9.9
same,Delayed memory,"[1]; test B 100 mg, 12 w",46.9 ± 11.3
same,Immediate memory,"[1]; test B 100 mg, 12 w",43.9 ± 14.4
same,Language,"[1]; test B 100 mg, 12 w",51.6 ± 8.7
same,Visual spatial configuration,"[1]; test B 100 mg, 12 w",48.2 ± 10.3
same,Attention: difference between active food and placebo food groups,[1]; [4],−5.5
same,Delayed memory: difference between active food and placebo food groups,[1]; [4],1.2
same,Immediate memory: difference between active food and placebo food groups,[1]; [4],−0.9
same,Language: difference between active food and placebo food groups,[1]; [4],−2.1
same,Visual space: difference between active food and placebo food groups,[1]; [4],1.0
same,Attention,[1]; [4],43.4 ± 11.6
same,Delayed memory,[1]; [4],41.7 ± 15.3
same,Immediate memory,[1]; [4],42.8 ± 13.4
same,Language,[1]; [4],47.8 ± 11.6
same,Visual spatial configuration,[1]; [4],48.3 ± 8.8
same,"scores regarding delayed playback, GABA group compared to the placebo group",[1]; test B,significant improvement
same,"scores regarding visual space, GABA group compared to the placebo group",[1]; test B,significant improvement
same,IGF-1,"[2]; blood, before ingestion, mean ± SD",71.0 ± 21.5 ng/mL
same,IGF-1 in the group that ingested GABA,[2]; vs. before ingestion,tendency of increase
